In brackets after ≈: the same amount, converted by molar mass.

In the first data set the test system is Sarcoma 180 ascites cells. In words: Effect on Sarcoma 180 carcinoma: intraperitoneal inoculation, mean survival days. In kind it is in vivo, ICR-strain mice. The conditions noted are these: 200 mg/kg, once a day for 7 days. How it is done:
Sarcoma 180 ascites cells (1×10^6 cells/head) were inocualted intraperitoneally into ICR-strain mice (female, 6 weeks old, each group consisting of 4 or 5 mice), and after 24 hours, the intraperitoneal administration of a test drug was started, and effected once a day for 7 days. The effect thereof was judged from the mean survival days. The test drug was used in the form of a solution or suspension in a saline solution or a 0.3% carboxymethyl cellulose-containing saline solution. [formula]
On to `CCCCCCN1CCN(Cc2ccc(Nc3ccccn3)cc2)C(=O)C1=O` [Compound 1], for which the “T/C (mean survival days)” value is listed as above 151.6%.

Staying with this data set, now noted: 200 mg/kg, once a day for 7 days, 35 days.
As to `CCCCCCN1CCN(Cc2ccc(Nc3ccccn3)cc2)C(=O)C1=O` [Compound 1], the “Survival Ratio in Days Shown in Parenthesis” value was 2/4.

The next data set has as its system Ehrlich ascites carcinoma cells. In words: Effect on Ehrlich carcinoma (i): intraperitoneal inoculation, mean survival days. In kind it is in vivo, ICR-strain mice. The conditions noted are these: Mus musculus, ip, 168 h, 30 mg/kg, once a day for 7 days, read-out: T/C (mean survival days). How it is done:
(i) Ehrlich ascites carcinoma cells (1×10^6 cells/head) were inoculated intraperitoneally into ICR-strain mice (female, 6 to 7 weeks old, each group consisting of 5 or 4 mice), and after 24 hours, the […] The effect thereof was judged from the mean survival days.
The test drugs were used in the form of a solution or suspension in a saline solution or a 0.3% carboxymethyl cellulose-containing saline solution. [formula]
On to `CCN(CC)c1ccc(CNCCN2CCN(Cc3ccc(N(CC)CC)cc3)C(=O)C2=O)cc1` [Compound 40], for which the response vs control in vivo at 30 mg/kg was 154%.

The same data set, now with this note: Mus musculus, ip, 168 h, 40 mg/kg, once a day for 7 days, read-out: T/C (mean survival days).
For the compound `CCCCCCN1CCN(Cc2ccc(N(CC)CC)c(Cl)c2)C(=O)C1=O` [Compound 28], the response vs control in vivo at 40 mg/kg is above 173%.

Turning to `CCN(CC)c1ccc(CN2CCN(Cc3cnc(Cl)nc3Cl)C(=O)C2=O)cc1` [Compound 36], the response vs control in vivo at 40 mg/kg was above 190%.

The same data set, now with this note: Mus musculus, ip, 168 h, 50 mg/kg, once a day for 7 days, read-out: T/C (mean survival days).
Regarding `CCCCCCN1CCN(Cc2ccc(NCc3ccncc3)cc2)C(=O)C1=O` [Compound 35], the response vs control in vivo at 50 mg/kg is 146%.

The data set is the same for the next values; noted with them: Mus musculus, ip, 168 h, 100 mg/kg, once a day for 7 days, read-out: T/C (mean survival days).
With `O=C1C(=O)N(Cc2ccc(Nc3ccccn3)cc2)CCN1Cc1ccccc1` [Compound 2], the response vs control in vivo at 100 mg/kg is above 192%.

For the compound `O=C1C(=O)N(Cc2ccc(Nc3ncccn3)cc2)CCN1CCc1ccccc1` [Compound 14], the response vs control in vivo at 100 mg/kg is above 179%.

Regarding `O=C1C(=O)N(Cc2ccc(Nc3ncccn3)cc2)CCN1Cc1ccc(Nc2ncccn2)cc1` [Compound 23], the response vs control in vivo at 100 mg/kg is 159%.

Turning to `CCCCCCN1CCN(Cc2ccc(N(CC)CC)c(Cl)c2)C(=O)C1=O` [Compound 28], the response vs control in vivo at 100 mg/kg was determined as 165%.

As for `CCCCCCN1CCN(Cc2ccc(N(CC)CC)c(C)c2)C(=O)C1=O` [Compound 29], the response vs control in vivo at 100 mg/kg was found to be 184%.

On to `CCCCCCN1CCN(Cc2ccc(N(CC)CC)cc2Cl)C(=O)C1=O` [Compound 30], for which the response vs control in vivo at 100 mg/kg was 152%.

Turning to `CCCCCCN1CCN(Cc2ccc(NC(=O)CCl)cc2)C(=O)C1=O` [Compound 34], the response vs control in vivo at 100 mg/kg was above 142%.

Regarding `CCCCCCN1CCN(Cc2ccc(NCc3ccncc3)cc2)C(=O)C1=O` [Compound 35], the response vs control in vivo at 100 mg/kg is above 187%.

In the case of `CCN(CC)c1ccc(CN2CCN(Cc3cnc(Cl)nc3Cl)C(=O)C2=O)cc1` [Compound 36], the response vs control in vivo at 100 mg/kg is 204%.

As for `CCN(CC)c1ccc(CN2CCN(Cc3ccccn3)C(=O)C2=O)cc1` [Compound 38], the response vs control in vivo at 100 mg/kg was 160%.

As for `CCN(CC)c1ccc(CN2CCN(Cc3cccnc3)C(=O)C2=O)cc1` [Compound 39], the response vs control in vivo at 100 mg/kg was above 164%.

The data set is the same for the next values; noted with them: Mus musculus, ip, 168 h, 200 mg/kg, once a day for 7 days, read-out: T/C (mean survival days).
Turning to `CCCCCCN1CCN(Cc2ccc(Nc3ccccn3)cc2)C(=O)C1=O` [Compound 1], the response vs control in vivo at 200 mg/kg is above 221%.

Turning to `CCCCCCN1CCN(Cc2ccc(NC(=O)CCl)cc2)C(=O)C1=O` [Compound 34], the response vs control in vivo at 200 mg/kg stood at 157%.

The test system of the next data set is Ehrlich cells. In words: MIC value against Ehrlich cells (microplate method). It is filed as cell-based. The conditions noted are these: 96 h, 2×10^4 cells/ml, 4 days, Giemsa staining. From the text: (§1) a. MIC value against HeLa S3 cells and Ehrlich cells (microplate method) Number of cells: 2×10^4 cells/ml Culture medium: Eagle's MEM+20% calf embryonic serum Culture time: 4 days Judgement: Giemsa staining
A word on the MIC: it is the least concentration at which growth counts as inhibited. Compound `CCCCCCN1CCN(Cc2ccc(Nc3ccccn3)cc2)C(=O)C1=O` [Compound 1] showed an MIC of 0.2 µg/mL (≈ 0.526 µM).

In turn, `O=C1C(=O)N(Cc2ccc(Nc3ccccn3)cc2)CCN1Cc1ccccc1` [Compound 2] gave a minimal inhibitory concentration (MIC) of 0.39 to 0.78 µg/mL (≈ 1.01 to 2.02 µM).

`O=C1C(=O)N(Cc2ccc(Nc3ccc([N+](=O)[O-])cn3)cc2)CCN1Cc1ccccc1` [Compound 3] came in with an MIC of 6.25 µg/mL (≈ 14.5 µM).

Consider `CCCCCCN1CCN(Cc2ccc(Nc3ccncc3)cc2)C(=O)C1=O` [Compound 5], for which 3.13 µg/mL (≈ 8.23 µM) was the least that counted as inhibitory (MIC).

In the case of `O=C1C(=O)N(c2cnccn2)CCN1Cc1ccc(Nc2ncccn2)cc1` [Compound 8], 0.39 µg/mL (≈ 1.04 µM) was the least that counted as inhibitory (MIC). Against the preceding compound, the MIC is about 8-fold lower.

As for `O=C1C(=O)N(Cc2cnccn2)CCN1Cc1ccc(Nc2ncccn2)cc1` [Compound 9], it took 6.25 µg/mL (≈ 16 µM) to inhibit growth (MIC).

On to `Nc1cccc(CN2CCN(Cc3ccc(Nc4ncccn4)cc3)C(=O)C2=O)n1` [Compound 10], for which the MIC is 12.5 µg/mL (≈ 31 µM).

Turning to `O=C1C(=O)N(Cc2ccc(Nc3ncccn3)cc2)CCN1CCc1ccccc1` [Compound 14], the lowest concentration to inhibit growth (MIC) was 0.39 µg/mL (≈ 0.971 µM). This MIC is about 32-fold lower than that of the compound before.

In the case of `O=C1C(=O)N(Cc2ccc(Nc3ncccn3)cc2)CCN1Cc1ccc(Nc2ncccn2)cc1` [Compound 23], the minimal inhibitory concentration (MIC) worked out at 6.25 µg/mL (≈ 13 µM). Against the preceding compound, the MIC is about 16-fold higher.

`CCCCCCN1CCN(Cc2ccc(N(CC)CC)c(Cl)c2)C(=O)C1=O` [Compound 28] returned a minimal inhibitory concentration (MIC) of 12.5 µg/mL (≈ 31.7 µM).

Take `CCCCCCN1CCN(Cc2ccc(N(CC)CC)c(C)c2)C(=O)C1=O` [Compound 29]: the MIC is 12.5 µg/mL (≈ 33.5 µM).

For the compound `CCCCCCN1CCN(Cc2ccc(N(CC)CC)cc2Cl)C(=O)C1=O` [Compound 30], the MIC worked out at 3.13 µg/mL (≈ 7.94 µM).

For `CCCCCCN1CCN(Cc2ccc(NC(=O)CCl)cc2)C(=O)C1=O` [Compound 34], it took 0.39 µg/mL (≈ 1.03 µM) to inhibit growth (MIC).

In turn, `CCCCCCN1CCN(Cc2ccc(NCc3ccncc3)cc2)C(=O)C1=O` [Compound 35] showed an MIC of 6.25 µg/mL (≈ 15.8 µM).

Compound `CCN(CC)c1ccc(CN2CCN(Cc3cnc(Cl)nc3Cl)C(=O)C2=O)cc1` [Compound 36] registered a minimum inhibitory concentration (MIC) of 12.5 µg/mL (≈ 28.6 µM).

With `CCN(CC)c1ccc(CN2CCN(Cc3ccccn3)C(=O)C2=O)cc1` [Compound 38], the minimum inhibitory concentration (MIC) came to 25 µg/mL (≈ 68.2 µM).

In the case of `CCN(CC)c1ccc(CN2CCN(Cc3cccnc3)C(=O)C2=O)cc1` [Compound 39], the minimum inhibitory concentration (MIC) is 25 µg/mL (≈ 68.2 µM).

For `CCN(CC)c1ccc(CNCCN2CCN(Cc3ccc(N(CC)CC)cc3)C(=O)C2=O)cc1` [Compound 40], the MIC was 12.5 µg/mL (≈ 26.1 µM).

System in a further data set: not listed separately
As to the kind of experiment: Acute toxicity. To be noted: mouse, in vivo, ip. An excerpt: The test drugs were used in the form of a solution or suspension in a saline solution or a 0.3% carboxymethyl cellulose-containing saline solution.
Usually LD50 stands for the dose expected to kill half of the subjects tested. The low end stands for greater toxicity, the high end for lower toxicity. Consider `CCCCCCN1CCN(Cc2ccc(Nc3ccccn3)cc2)C(=O)C1=O` [Compound 1], for which the median lethal dose (LD50) at 168 h is above 500 mg/kg.

Staying with this data set, now noted: mouse, in vivo, ip; intraperitoneal, once, male mice, observed for 7 days.
`O=C1C(=O)N(Cc2ccc(Nc3ccccn3)cc2)CCN1Cc1ccccc1` [Compound 2] gave an LD50 at 168 h above 200 mg/kg.

`O=C1C(=O)N(Cc2ccc(Nc3ncccn3)cc2)CCN1CCc1ccccc1` [Compound 14] gave an LD50 at 168 h above 500 mg/kg.

For another data set, the system named is HeLa S3 cells. In words: MIC value against HeLa S3 cells (microplate method). The conditions noted are these: Homo sapiens, 96 h, 2×10^4 cells/ml, 4 days, Giemsa staining. In kind it is cell-based.
Description: as §1
As to `CCCCCCN1CCN(Cc2ccc(Nc3ccccn3)cc2)C(=O)C1=O` [Compound 1], inhibition of growth (MIC) required 0.2 µg/mL (≈ 0.526 µM).

`O=C1C(=O)N(Cc2ccc(Nc3ccccn3)cc2)CCN1Cc1ccccc1` [Compound 2] yielded an MIC of 0.39 to 0.78 µg/mL (≈ 1.01 to 2.02 µM).

Compound `O=C1C(=O)N(Cc2ccc(Nc3ccc([N+](=O)[O-])cn3)cc2)CCN1Cc1ccccc1` [Compound 3] registered an MIC of 3.13 to 6.25 µg/mL (≈ 7.25 to 14.5 µM).

Compound `CCCCCCN1CCN(Cc2ccc(Nc3ccncc3)cc2)C(=O)C1=O` [Compound 5] had an MIC of 3.13 µg/mL (≈ 8.23 µM).

Consider `O=C1C(=O)N(c2cnccn2)CCN1Cc1ccc(Nc2ncccn2)cc1` [Compound 8], for which the MIC is 0.78 µg/mL (≈ 2.08 µM).

On to `O=C1C(=O)N(Cc2cnccn2)CCN1Cc1ccc(Nc2ncccn2)cc1` [Compound 9], for which the MIC lay within 1.56 to 3.13 µg/mL (≈ 4.01 to 8.04 µM).

`Nc1cccc(CN2CCN(Cc3ccc(Nc4ncccn4)cc3)C(=O)C2=O)n1` [Compound 10] gave a minimal inhibitory concentration (MIC) of 1.56 to 3.13 µg/mL (≈ 3.87 to 7.76 µM).

`O=C1C(=O)N(Cc2ccc(Nc3ncccn3)cc2)CCN1CCc1ccccc1` [Compound 14]: it took 0.39 µg/mL (≈ 0.971 µM) to inhibit growth (MIC).

In turn, `O=C1C(=O)N(Cc2ccc(Nc3ncccn3)cc2)CCN1Cc1ccc(Nc2ncccn2)cc1` [Compound 23] gave a minimal inhibitory concentration (MIC) of 6.25 µg/mL (≈ 13 µM).

In turn, `CCCCCCN1CCN(Cc2ccc(N(CC)CC)c(Cl)c2)C(=O)C1=O` [Compound 28] yielded an MIC of 12.5 µg/mL (≈ 31.7 µM).

`CCCCCCN1CCN(Cc2ccc(N(CC)CC)c(C)c2)C(=O)C1=O` [Compound 29] yielded a minimum inhibitory concentration (MIC) of 12.5 µg/mL (≈ 33.5 µM).

`CCCCCCN1CCN(Cc2ccc(N(CC)CC)cc2Cl)C(=O)C1=O` [Compound 30] came in with an MIC of 3.13 µg/mL (≈ 7.94 µM).

Take `CCCCCCN1CCN(Cc2ccc(NC(=O)CCl)cc2)C(=O)C1=O` [Compound 34]: 0.39 µg/mL (≈ 1.03 µM) was the least that counted as inhibitory (MIC).

Compound `CCCCCCN1CCN(Cc2ccc(NCc3ccncc3)cc2)C(=O)C1=O` [Compound 35] displayed an MIC of 6.25 µg/mL (≈ 15.8 µM).

Consider `CCN(CC)c1ccc(CN2CCN(Cc3cnc(Cl)nc3Cl)C(=O)C2=O)cc1` [Compound 36], for which it took 12.5 µg/mL (≈ 28.6 µM) to inhibit growth (MIC).

For the compound `CCN(CC)c1ccc(CN2CCN(Cc3ccccn3)C(=O)C2=O)cc1` [Compound 38], the MIC is 25 µg/mL (≈ 68.2 µM).

Compound `CCN(CC)c1ccc(CN2CCN(Cc3cccnc3)C(=O)C2=O)cc1` [Compound 39] gave an MIC of 25 µg/mL (≈ 68.2 µM).

As for `CCN(CC)c1ccc(CNCCN2CCN(Cc3ccc(N(CC)CC)cc3)C(=O)C2=O)cc1` [Compound 40], the minimum inhibitory concentration (MIC) stood at 12.5 µg/mL (≈ 26.1 µM).
